In brackets after ≈: the same amount, converted by molar mass. Several values for one entry are separate records, joined by “and”; a condition that tells them apart may be missing. Identical values can stand only once. Like-named read-outs stand apart in the source and are kept apart here.
Tests used:
Aqueous solubility = assay type: physicochemical
log P = assay type: physicochemical
[1] = Single dose oral pharmacokinetics in fed healthy young subjects; assay type: in vivo, human; conditions: for half-life: po, 400 mg
[2] = Repeated dose pharmacokinetics, clinical dosing regimen; assay type: in vivo, human; conditions: 400 mg TID for 5 days
Description: Plasma accumulation of pleconaril was modest (approximately two fold) when pleconaril was administered according to the clinical dosing regimen (400 mg TID for 5 days). The long terminal half-life had only a modest influence on pleconaril plasma concentration-time profiles for the clinical dosing regimen. The repeated dose pharmacokinetic profile of pleconaril was predictable from single dose data and, thus, the pharmacokinetic profile of pleconaril was time independent (FIG. 2).

[3] = Cell toxicity (MTT) assay of cell growth; conditions: human, HeLa (WIS) cells; methyltetrazolium dye-based assay of cell growth
Description: To properly evaluate antiviral activity in cell culture assays, the 50% cytotoxic concentration (CC50) of the test compound was first determined so that any inhibitory effects on virus replication could be distinguished from effects due to compound cytotoxicity. The CC50 of pleconaril was determined using a methyltetrazolium dye-based assay of cell growth (Pevear, et al., 1999, Antimicrob. Agents Chemother., 43, 2109-2115).
Pleconaril was solubilized in dimethyl sulfoxide (DMSO). After dilution to the desired drug concentration, the final DMSO concentration in assays was 0.25%.

[4] = tested on: 10 other human viral pathogens; assay: Antiviral specificity, viral cytopathic effect assays; assay type: cell-based
HRV-14 = assay: Attachment inhibition, 35S-radiolabeled virus; assay type: cell-based, human rhinovirus; conditions: HRV-14, ICAM-1 receptor, FIG. 5
Description: (§1) The ability of pleconaril to affect the attachment to cells of several HRV serotypes was examined. ^35S-radiolabeled virus was incubated with susceptible cells for 1 hour in the presence of various concentrations of pleconaril. Cell-associated virus was quantified by direct scintillation counting of cell lysates after removal of unbound virus.
(§2) ^35S-radiolabeled virus was preincubated with various concentrations of pleconaril or 0.5% DMSO alone for 1 hour at room temperature. Cells in 6 well plates were inoculated with 20,000 cpm of ^35S-radiolabeled virus/well in 0.5 mL of M199 medium with 5% FBS. Attachment was allowed to proceed for 1 hour at 33° C., at which time the inoculum was removed and the cells washed with 2 mL of medium. The cells were then lysed by a 15 minute incubation on ice in the presence of 250 μL/well of a solution containing detergent 1% Nonident P40 (NP40) and 20 mM chelator, ethylene diamine tetraacetic acid (EDTA) in water. Cell-associated radioactivity was quantified by liquid scintillation spectroscopy in a Wallac Model 1409 Liquid Scintillation Counter (Wallac Oy, Turku, Finland).

HRV-1A = assay: Attachment inhibition, 35S-radiolabeled virus; assay type: cell-based, human rhinovirus; conditions: LDL receptor, HeLa cells
Description: as §1, §2

HRV-2 = assay: Attachment inhibition, 35S-radiolabeled virus; assay type: cell-based, human rhinovirus; conditions: HRV-2, LDL receptor, HeLa cells
Description: as §1, §2

HRV-3 = assay: Attachment inhibition, 35S-radiolabeled virus; assay type: cell-based, human rhinovirus; conditions: HRV-3, ICAM-1 receptor, FIG. 5
Description: as §1, §2

HRV-50 = assay: Attachment inhibition, 35S-radiolabeled virus; assay type: cell-based, human rhinovirus; conditions: HRV-50, ICAM-1 receptor, FIG. 5
Description: as §1, §2

HRV-89 = assay: Attachment inhibition, 35S-radiolabeled virus; assay type: cell-based, human rhinovirus; conditions: HRV-89, ICAM-1 receptor, FIG. 5
Description: as §1, §2

HRV3 = assay: RNA replication, viral RNA synthesis; assay type: cell-based, human rhinovirus; conditions: 2 μM, pleconaril-treated cells
Description: Immediately after uncoating, viral gene expression (protein translation) and viral RNA replication begin. However, uncoating must occur before either of these two processes can be initiated. In experiments conducted similarly to the uncoating experiment described above, an experiment was conducted to measure viral RNA synthesis in the presence and absence of pleconaril. At the end of the 2 hours temperature shift, actinomycin D was added to the culture medium to inhibit cellular DNA-dependent RNA synthesis. After 2 hours in the presence of actinomycin D, no cellular RNA synthesis was detectable. At that time, ^3H-uridine was added to the medium and the incubation was allowed to proceed 2.5 hours (a total of 6.5 hours post-attachment). Total cellular RNA was then recovered, electrophoresed on an agarose-urea gel and visualized by fluorography.
HeLa cells in 6 well plates were infected at an MOI of 5 PFU/cell with 1 mL of HRV3 for 1 hour at room temperature in the presence or absence of 2 μM pleconaril. After virus attachment, the incubation was continued for an additional 2 hrs at 33° C. (HRV3). The inoculum was then removed and 3 mL/well of M199 medium with 5% FBS and 5 μg/mL of actinomycin D was added with 2 μM pleconaril or DMSO only (0.5% final concentration). The cells were returned to the incubator for 2 hours, at which time 300 μCi of ^3H-uridine (Amersham) was added per well. […]

[5] = Clinical pharmacokinetics: food effect, linearity, renal excretion; assay type: in vivo, human
Description: Pleconaril was administered with food in all Phase II and III clinical studies conducted by Applicants.
Pleconaril has a volume of distribution (Vz/F) that is consistent with significant tissue distribution despite the fact that pleconaril is highly bound (>99%) to plasma protein. Pleconaril is a low systemic clearance drug. Renal clearance contributes insignificantly to the systemic clearance of pleconaril. Less than 1% of the dose is excreted unchanged as pleconaril in urine.

101 serotypes of HRVs = assay: Spectrum of activity in HRV cytopathic effect assay
Description: HRV stocks were grown in HeLa (WIS) cells in 150 cm^2 flasks, frozen/thawed 3 times, aliquoted and stored frozen at −80° C. The virus inoculum to be used in the assay for each virus was determined as follows. HeLa (WIS) cells were seeded on 96-well tissue culture plates (Costar, 3598) at a density of 2.8×10^4 cells/well in M199 medium (Sigma) supplemented with 5% heat-inactivated newborn bovine serum. Twenty-four hours later, serial 0.5 log10 dilutions of each virus stock were plated in octuplicate onto the cells in complete M199 medium (5% heat-inactivated fetal bovine serum (FBS), 0.15 mM MgCl2, and 7.5 μg/mL diethylamino-dextran (DEAE-dextran)). The plates were incubated for 3 days at 33° C. in a humidified, 2.5% CO2 atmosphere, then fixed with 5% glutaraldehyde and stained with 0.1% crystal violet. After rinsing and drying, the optical density of the wells was read at a wavelength of 570 nm (OD570) on a Bio-Tek model EL-310 plate reader.

[6] = human, plasma, fed healthy young subjects (N = 24), single oral dose 400 mg, mean

Cc1cc(CCCOc2c(C)cc(-c3noc(C(F)(F)F)n3)cc2C)on1 [pleconaril, 3-[3,5-dimethyl-4-[3-(3-methyl-5-isoxazolyl)propoxy]phenyl]-5-(trifluoromethyl)-1,2,4-oxadiazole]
solubility (Aqueous solubility): 0.02 µg/mL (≈ 0.0524 µM) | log P (log P): high | CL/F ([1]; fed healthy young subjects (N = 24), single oral dose 400 mg, mean): 16.8 L/h | alpha half-life ([1]; following oral absorption, alpha disposition phase): ~2.8 h | half-life ([1]; human, plasma, fed healthy young subjects (N = 24), single oral dose 400 mg, mean, read-out: T1/2 (converted)): 186 h | half-life ([1]; human, plasma, following oral absorption, alpha disposition phase, read-out: alpha half-life): 2 to 3 h | half-life ([1]; human, plasma, following oral absorption, read-out: terminal half-life (converted)): ~180 h | AUC(0-inf) [1, 6]: 29200 ng·h/mL | Cmax [1, 6]: 2300 ng/mL | Tmax [1, 6]: 3 h | Vd/F ([1]; human, plasma, fed healthy young subjects (N = 24), single oral dose 400 mg, mean, read-out: Vz/F): 4110 L | plasma accumulation [2]: approximately two | CC50 [3]: 12.5 to 25 µM | activity against unrelated viruses [4]: no activity | IC50 ([4]; Homo sapiens, all ten viruses): > 12.5 µM | attachment of virus to cells (HRV-14): inhibited | attachment of virus to cells (HRV-1A): able to bind to HeLa cells normally | attachment of virus to cells (HRV-2): able to bind to HeLa cells normally | attachment of virus to cells (HRV-3): inhibited | attachment of virus to cells (HRV-50): inhibited | attachment of virus to cells (HRV-89): inhibited | HRV3 RNA synthesis (HRV3): completely blocked | pharmacokinetic profile, dose dependence ([5]; plasma concentration range exceeding the proposed regimen by approximately 2-fold): dose proportional and linear | dose excreted unchanged as pleconaril in urine ([5]; urine): Less than 1% | increase of absorption when administered with food ([5]; with food): 3-4 fold | MIC50 (101 serotypes of HRVs; Human rhinovirus sp., read-out: MIC50 (concentration inhibiting 50% of the HRV serotypes)): ≤ 0.2 µM and ≤ 0.08 µg/mL | MIC80 (101 serotypes of HRVs; Human rhinovirus sp., read-out: MIC80 (concentration inhibiting 80% of the HRV serotypes)): ≤ 0.78 µM and ≤ 0.3 µg/mL | MIC90 (101 serotypes of HRVs; Human rhinovirus sp., read-out: MIC90 (concentration inhibiting 90% of the HRV serotypes)): ≤ 4.3 µM and ≤ 1.6 µg/mL | HRVs whose replication was inhibited (101 serotypes of HRVs; of 101 prototypic serotypes): 93 of 101

— US20060167109A1, “Methods of reducing rhinovirus contagion and related compositions” (priority 2002, published 2006)
